Values quoted from earlier work as cited in publication PMC9516332 (Frontiers in Oncology, 2022).
Read-outs that look alike come from different tables or passages of the source.

Key:
Conditions in all cases: cited from earlier work
[1] = molecular target: panel of 255 wild-type kinases (Homo sapiens, UniProt Q9P289)
[2] = molecular target: panel of 255 wild-type kinases (Homo sapiens, UniProt P24723)
[3] = molecular target: panel of 255 wild-type kinases (Homo sapiens, UniProt Q9HC98)
[4] = molecular target: T1, panel of 255 wild-type kinases (Homo sapiens, UniProt O60285)
T1 sequence (O60285 1-661): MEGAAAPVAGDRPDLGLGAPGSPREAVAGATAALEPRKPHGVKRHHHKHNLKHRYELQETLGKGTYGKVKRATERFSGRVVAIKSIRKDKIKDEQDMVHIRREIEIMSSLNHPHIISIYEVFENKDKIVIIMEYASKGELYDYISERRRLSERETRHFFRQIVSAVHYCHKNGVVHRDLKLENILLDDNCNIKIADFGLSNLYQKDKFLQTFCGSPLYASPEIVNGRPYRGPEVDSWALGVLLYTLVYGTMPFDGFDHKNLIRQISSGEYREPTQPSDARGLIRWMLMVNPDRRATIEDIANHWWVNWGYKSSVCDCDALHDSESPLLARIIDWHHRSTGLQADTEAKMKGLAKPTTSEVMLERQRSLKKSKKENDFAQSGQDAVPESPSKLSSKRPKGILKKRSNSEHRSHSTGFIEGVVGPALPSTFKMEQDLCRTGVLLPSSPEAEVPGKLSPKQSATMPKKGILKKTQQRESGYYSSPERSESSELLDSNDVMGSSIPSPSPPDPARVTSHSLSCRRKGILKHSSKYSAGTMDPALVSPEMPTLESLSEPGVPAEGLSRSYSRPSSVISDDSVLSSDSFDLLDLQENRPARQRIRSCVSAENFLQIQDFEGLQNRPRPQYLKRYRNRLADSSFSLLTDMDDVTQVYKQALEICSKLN

[5] = molecular target: T2, panel of 255 wild-type kinases (Homo sapiens, UniProt P52333)
T2 sequence (P52333 1-1124): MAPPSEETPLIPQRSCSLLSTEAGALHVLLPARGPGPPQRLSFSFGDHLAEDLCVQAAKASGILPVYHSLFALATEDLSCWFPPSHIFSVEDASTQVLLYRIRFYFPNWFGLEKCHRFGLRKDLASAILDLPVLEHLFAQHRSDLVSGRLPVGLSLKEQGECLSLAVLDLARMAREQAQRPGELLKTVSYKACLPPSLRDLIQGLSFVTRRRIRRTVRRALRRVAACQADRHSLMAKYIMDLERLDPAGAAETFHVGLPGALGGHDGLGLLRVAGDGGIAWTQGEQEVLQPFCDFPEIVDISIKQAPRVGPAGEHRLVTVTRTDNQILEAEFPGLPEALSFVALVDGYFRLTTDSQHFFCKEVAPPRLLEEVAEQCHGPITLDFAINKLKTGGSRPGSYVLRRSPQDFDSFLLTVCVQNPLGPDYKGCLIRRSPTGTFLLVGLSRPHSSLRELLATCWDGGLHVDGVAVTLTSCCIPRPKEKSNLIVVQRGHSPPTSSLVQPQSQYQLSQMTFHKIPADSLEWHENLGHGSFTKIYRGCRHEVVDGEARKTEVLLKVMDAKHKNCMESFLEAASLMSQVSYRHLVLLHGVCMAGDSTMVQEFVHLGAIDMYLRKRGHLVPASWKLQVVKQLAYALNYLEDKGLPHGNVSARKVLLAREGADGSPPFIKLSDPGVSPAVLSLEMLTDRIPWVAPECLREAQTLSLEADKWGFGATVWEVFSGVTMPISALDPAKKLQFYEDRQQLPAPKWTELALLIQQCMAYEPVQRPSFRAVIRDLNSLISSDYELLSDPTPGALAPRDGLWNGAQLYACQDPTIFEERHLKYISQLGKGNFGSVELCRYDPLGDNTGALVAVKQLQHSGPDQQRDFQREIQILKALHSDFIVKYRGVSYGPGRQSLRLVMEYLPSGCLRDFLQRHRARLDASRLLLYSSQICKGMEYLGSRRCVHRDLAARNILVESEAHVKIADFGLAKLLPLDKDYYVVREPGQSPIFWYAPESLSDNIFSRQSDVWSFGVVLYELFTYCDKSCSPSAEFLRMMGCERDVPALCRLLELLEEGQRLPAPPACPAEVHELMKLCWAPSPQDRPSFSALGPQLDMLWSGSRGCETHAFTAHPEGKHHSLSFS

[6] = molecular target: T3, panel of 255 wild-type kinases (Homo sapiens, UniProt O00141)
T3 sequence (O00141 1-431): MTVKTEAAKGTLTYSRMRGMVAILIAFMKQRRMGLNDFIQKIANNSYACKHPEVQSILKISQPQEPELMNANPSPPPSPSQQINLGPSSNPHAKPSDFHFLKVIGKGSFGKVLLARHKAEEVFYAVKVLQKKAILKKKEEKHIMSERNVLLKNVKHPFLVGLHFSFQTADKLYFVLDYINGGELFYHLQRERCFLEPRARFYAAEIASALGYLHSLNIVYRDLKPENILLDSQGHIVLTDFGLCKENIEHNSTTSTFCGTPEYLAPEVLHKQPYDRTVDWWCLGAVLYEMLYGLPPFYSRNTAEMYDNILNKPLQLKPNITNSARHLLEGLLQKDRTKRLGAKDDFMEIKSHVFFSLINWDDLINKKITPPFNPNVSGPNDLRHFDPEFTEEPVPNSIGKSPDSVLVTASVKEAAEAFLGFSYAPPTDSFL

[7] = MST4, 1 µmol/L single concentration, ref DOI: 10.1158/1535-7163.MCT-18-0877
[8] = kinase PKCη, 1 µmol/L single concentration, ref DOI: 10.1158/1535-7163.MCT-18-0877
[9] = NEK6, 1 µmol/L single concentration, ref DOI: 10.1158/1535-7163.MCT-18-0877
[10] = NuaK1, 1 µmol/L single concentration, ref DOI: 10.1158/1535-7163.MCT-18-0877
[11] = kinase JAK3, 1 µmol/L single concentration, ref DOI: 10.1158/1535-7163.MCT-18-0877
[12] = kinase SGK, 1 µmol/L single concentration, ref DOI: 10.1158/1535-7163.MCT-18-0877
[13] = MST4, 1 µmol/L single concentration, ref DOI: 10.1371/journal.pone.0092146
[14] = kinase PKCη, 1 µmol/L single concentration, ref DOI: 10.1371/journal.pone.0092146
[15] = NEK6, 1 µmol/L single concentration, ref DOI: 10.1371/journal.pone.0092146
[16] = NuaK1, 1 µmol/L single concentration, ref DOI: 10.1371/journal.pone.0092146
[17] = kinase JAK3, 1 µmol/L single concentration, ref DOI: 10.1371/journal.pone.0092146
[18] = kinase SGK, 1 µmol/L single concentration, ref DOI: 10.1371/journal.pone.0092146

Row | SMILES | %-inhibition, MST4 [1, 7] | %-inhibition at 1 µmol/L, PKCη [2, 8] | %-inhibition, NEK6 [3, 9] | %-inhibition, NuaK1 [4, 10] | %-inhibition at 1 µmol/L, JAK3 [5, 11] | %-inhibition at 1 µmol/L, SGK [6, 12] | %-inhibition, MST4 [1, 13] | %-inhibition at 1 µmol/L, PKCη [2, 14] | %-inhibition, NEK6 [3, 15] | %-inhibition, NuaK1 [4, 16] | %-inhibition at 1 µmol/L, JAK3 [5, 17] | %-inhibition at 1 µmol/L, SGK [6, 18] | also measured
1 | CC#CC(=O)N1CCC[C@H]1c1nc(-c2ccc(C(=O)Nc3ccccn3)cc2)c2c(N)nccn12 [acalabrutinib] | -6.42% | -3.18% | -5.54% | -3.51% | -1% | -5% | – | – | – | – | – | – | –
2 | CCc1cc2c(cc1N1CCC(N3CCOCC3)CC1)C(C)(C)c1[nH]c3cc(C#N)ccc3c1C2=O [alectinib] | -7% | 10% | 1.43% | -19% | 5.58% | 12% | – | – | – | – | – | – | –
3 | COc1cc(N2CCC(N3CCN(C)CC3)CC2)ccc1Nc1ncc(Cl)c(Nc2ccccc2P(C)(C)=O)n1 [brigatinib] | – | – | – | – | – | – | – | – | – | – | – | – | %-inhibition, MST4 [1]: -1.25%; %-inhibition at 1 µmol/L, PKCη [2]: 17%; %-inhibition, NEK6 [3]: 0.534%; %-inhibition, NuaK1 [4]: 90%; %-inhibition at 1 µmol/L, JAK3 [5]: 97%; %-inhibition at 1 µmol/L, SGK [6]: 4.76%
4 | Cc1cc(Nc2ncc(Cl)c(Nc3ccccc3S(=O)(=O)C(C)C)n2)c(OC(C)C)cc1C1CCNCC1 [ceritinib] | 4% | 5.3% | 0.593% | 17% | 2.84% | 2% | – | – | – | – | – | – | –
5 | O=C(c1ccc(F)c(F)c1Nc1ccc(I)cc1F)N1CC(O)([C@@H]2CCCCN2)C1 [cobimetinib] | -0.477% | -2% | 1.81% | 2.32% | -3.25% | -19% | – | – | – | – | – | – | –
6 | C[C@@H](Oc1cc(-c2cnn(C3CCNCC3)c2)cnc1N)c1c(Cl)ccc(F)c1Cl [crizotinib] | – | – | – | – | – | – | 0.54% | -8% | -2.72% | 99% | 77% | 1.46% | –
7 | CC(C)(C)c1nc(-c2cccc(NS(=O)(=O)c3c(F)cccc3F)c2F)c(-c2ccnc(N)n2)s1 [dabrafenib] | – | – | – | – | – | – | -7% | 9% | -3% | 7% | 22% | 4% | –
8 | C=CC(=O)N1CCC[C@@H](n2nc(-c3ccc(Oc4ccccc4)cc3)c3c(N)ncnc32)C1 [ibrutinib] | 1.46% | 3.27% | 0.77% | 7% | 91% | -21% | – | – | – | – | – | – | –
9 | CO[C@@H]1[C@H](N(C)C(=O)c2ccccc2)C[C@H]2O[C@]1(C)n1c3ccccc3c3c4c(c5c6ccccc6n2c5c31)C(=O)NC4 [midostaurin] | 52% | – | -8% | 101% | 100% | 31% | – | – | – | – | – | – | %-inhibition at 1 µmol/L, PKCη [2]: 84%
10 | C=CC(=O)Nc1cc(Nc2nccc(-c3cn(C)c4ccccc34)n2)c(OC)cc1N(C)CCN(C)C [osimertinib] | 1.61% | 0.117% | 0.319% | 48% | 97% | -11% | – | – | – | – | – | – | –
11 | CC(=O)Nc1cccc(-n2c(=O)n(C3CC3)c(=O)c3c(Nc4ccc(I)cc4F)n(C)c(=O)c(C)c32)c1 [trametinib] | – | – | – | – | – | – | -2.23% | -8% | -0.324% | -0.634% | 6% | 0.217% | –
12 | CCCS(=O)(=O)Nc1ccc(F)c(C(=O)c2c[nH]c3ncc(-c4ccc(Cl)cc4)cc23)c1F [vemurafenib] | – | – | – | – | – | – | -4.62% | -22% | -1.43% | 4% | 10% | -0.122% | –
